Laboratory results as given in ChEMBL document CHEMBL5465560, “Selectivity Literature for EUbOPEN Chemogenomic Library” (2024).

How the values were obtained:
[1] = biological target: Calcium/calmodulin-dependent protein kinase type II subunit alpha (Homo sapiens, UniProt Q9UQM7); test: Selectivity interaction (KinomeScan (DiscoverX)) EUB0001079a CAMK2A; conditions: at 1 µM
[2] = biological target: T1, Ephrin type-B receptor 6 (Homo sapiens) (UniProt O15197); test: Selectivity interaction (KinomeScan (DiscoverX)) EUB0000092b EPHB6; conditions: at 10 µM
T1 sequence (whole entry): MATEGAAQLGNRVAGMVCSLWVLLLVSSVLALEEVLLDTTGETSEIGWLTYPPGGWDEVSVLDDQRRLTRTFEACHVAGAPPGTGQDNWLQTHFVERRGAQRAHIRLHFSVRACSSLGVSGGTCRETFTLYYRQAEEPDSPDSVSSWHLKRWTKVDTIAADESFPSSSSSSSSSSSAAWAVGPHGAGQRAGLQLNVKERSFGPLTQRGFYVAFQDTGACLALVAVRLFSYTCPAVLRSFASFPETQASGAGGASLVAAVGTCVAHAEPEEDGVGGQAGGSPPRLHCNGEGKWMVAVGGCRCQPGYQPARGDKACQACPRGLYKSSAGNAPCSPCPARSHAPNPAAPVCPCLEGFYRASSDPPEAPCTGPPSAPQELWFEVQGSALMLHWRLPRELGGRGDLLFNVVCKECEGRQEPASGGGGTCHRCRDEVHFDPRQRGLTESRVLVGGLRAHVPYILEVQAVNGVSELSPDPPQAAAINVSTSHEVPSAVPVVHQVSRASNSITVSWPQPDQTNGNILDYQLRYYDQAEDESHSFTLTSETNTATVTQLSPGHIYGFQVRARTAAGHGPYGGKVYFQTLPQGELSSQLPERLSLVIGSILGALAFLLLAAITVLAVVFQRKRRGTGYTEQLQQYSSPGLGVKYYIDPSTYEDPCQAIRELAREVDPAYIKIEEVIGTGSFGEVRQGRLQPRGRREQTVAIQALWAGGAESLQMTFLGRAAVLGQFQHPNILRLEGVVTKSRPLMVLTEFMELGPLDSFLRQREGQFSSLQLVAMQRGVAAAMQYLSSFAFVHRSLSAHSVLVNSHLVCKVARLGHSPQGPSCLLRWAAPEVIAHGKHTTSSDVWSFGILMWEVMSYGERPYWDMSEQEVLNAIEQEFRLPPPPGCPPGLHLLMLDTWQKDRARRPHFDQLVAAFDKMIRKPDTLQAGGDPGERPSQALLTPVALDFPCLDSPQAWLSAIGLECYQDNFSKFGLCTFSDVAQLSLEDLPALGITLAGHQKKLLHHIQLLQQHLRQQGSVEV

[3] = biological target: T2, Dual specificity mitogen-activated protein kinase kinase 5 (Homo sapiens) (UniProt Q13163); test: Selectivity interaction (KinomeScan (DiscoverX)) EUB0000618a MAP2K5; conditions: at 10 µM
T2 sequence (whole entry): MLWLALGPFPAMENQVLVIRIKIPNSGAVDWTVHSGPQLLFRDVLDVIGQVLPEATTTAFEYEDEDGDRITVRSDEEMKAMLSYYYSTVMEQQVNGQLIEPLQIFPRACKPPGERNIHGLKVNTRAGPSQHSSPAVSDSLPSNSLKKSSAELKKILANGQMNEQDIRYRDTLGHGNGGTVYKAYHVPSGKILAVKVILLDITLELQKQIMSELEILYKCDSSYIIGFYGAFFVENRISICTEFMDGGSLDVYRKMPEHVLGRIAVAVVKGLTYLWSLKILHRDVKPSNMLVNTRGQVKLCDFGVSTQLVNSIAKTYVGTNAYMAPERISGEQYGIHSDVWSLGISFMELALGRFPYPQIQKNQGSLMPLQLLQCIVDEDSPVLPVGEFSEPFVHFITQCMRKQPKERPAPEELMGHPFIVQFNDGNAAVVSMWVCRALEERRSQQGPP

[4] = biological target: T3, Serine/threonine-protein kinase ICK (Homo sapiens) (UniProt Q9UPZ9); test: Selectivity interaction (KinomeScan (DiscoverX)) EUB0000618a ICK; conditions: at 10 µM
T3 sequence (whole entry): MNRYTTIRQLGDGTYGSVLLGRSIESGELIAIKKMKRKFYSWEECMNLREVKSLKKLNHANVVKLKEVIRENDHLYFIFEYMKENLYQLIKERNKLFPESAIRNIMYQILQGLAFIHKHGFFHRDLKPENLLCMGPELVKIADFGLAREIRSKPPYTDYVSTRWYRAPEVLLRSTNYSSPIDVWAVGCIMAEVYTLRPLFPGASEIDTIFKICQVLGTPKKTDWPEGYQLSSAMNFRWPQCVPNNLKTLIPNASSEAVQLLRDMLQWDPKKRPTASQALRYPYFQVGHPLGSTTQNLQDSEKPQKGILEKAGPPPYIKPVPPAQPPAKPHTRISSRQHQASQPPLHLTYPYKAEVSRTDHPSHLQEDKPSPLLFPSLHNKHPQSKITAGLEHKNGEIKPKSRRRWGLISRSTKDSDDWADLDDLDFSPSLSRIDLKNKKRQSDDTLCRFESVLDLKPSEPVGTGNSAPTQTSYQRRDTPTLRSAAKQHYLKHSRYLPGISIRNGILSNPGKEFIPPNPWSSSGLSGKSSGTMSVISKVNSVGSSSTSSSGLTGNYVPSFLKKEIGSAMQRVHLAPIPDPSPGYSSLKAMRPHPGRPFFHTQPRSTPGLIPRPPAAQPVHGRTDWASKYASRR

[5] = biological target: T4, Serine/threonine-protein kinase DCLK2 (Homo sapiens) (UniProt Q8N568); test: Selectivity interaction (ProQinase) EUB0000171b DCLK2
T4 sequence (whole entry): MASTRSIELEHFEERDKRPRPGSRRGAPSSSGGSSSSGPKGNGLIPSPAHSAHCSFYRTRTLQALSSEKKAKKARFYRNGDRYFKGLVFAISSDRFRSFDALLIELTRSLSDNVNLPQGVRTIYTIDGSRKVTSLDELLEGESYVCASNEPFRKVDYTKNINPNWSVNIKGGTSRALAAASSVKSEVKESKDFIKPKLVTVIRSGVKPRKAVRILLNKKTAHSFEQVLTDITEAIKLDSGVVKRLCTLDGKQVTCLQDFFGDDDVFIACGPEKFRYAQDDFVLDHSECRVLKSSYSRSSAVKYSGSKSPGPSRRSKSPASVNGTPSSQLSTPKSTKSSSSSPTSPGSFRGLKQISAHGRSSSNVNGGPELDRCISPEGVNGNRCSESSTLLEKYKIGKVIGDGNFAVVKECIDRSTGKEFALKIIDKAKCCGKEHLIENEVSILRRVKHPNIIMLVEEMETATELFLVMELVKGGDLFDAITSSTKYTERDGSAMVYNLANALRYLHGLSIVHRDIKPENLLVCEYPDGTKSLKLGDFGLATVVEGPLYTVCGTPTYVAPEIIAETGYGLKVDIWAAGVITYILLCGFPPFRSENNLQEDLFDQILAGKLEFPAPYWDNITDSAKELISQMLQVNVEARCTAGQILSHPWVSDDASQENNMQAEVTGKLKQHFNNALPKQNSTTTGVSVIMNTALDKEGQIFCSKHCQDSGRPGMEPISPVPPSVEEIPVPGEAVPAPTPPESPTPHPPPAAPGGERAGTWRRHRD

Calcium/calmodulin-dependent protein kinase type II subunit alpha, sequence (Q9UQM7 whole entry): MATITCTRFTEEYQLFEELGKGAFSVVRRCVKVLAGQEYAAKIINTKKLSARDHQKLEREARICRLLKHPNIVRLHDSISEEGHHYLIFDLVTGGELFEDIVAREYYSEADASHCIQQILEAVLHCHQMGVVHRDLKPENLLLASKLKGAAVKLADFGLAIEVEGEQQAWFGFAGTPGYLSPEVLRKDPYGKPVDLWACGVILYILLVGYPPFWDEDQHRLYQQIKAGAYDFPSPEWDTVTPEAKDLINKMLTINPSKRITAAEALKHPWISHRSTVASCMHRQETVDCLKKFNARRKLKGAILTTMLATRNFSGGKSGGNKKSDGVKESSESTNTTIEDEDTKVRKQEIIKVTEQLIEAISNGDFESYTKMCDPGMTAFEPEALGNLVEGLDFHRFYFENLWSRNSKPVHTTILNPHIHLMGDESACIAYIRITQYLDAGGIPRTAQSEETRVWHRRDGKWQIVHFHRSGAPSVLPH

For `Nc1cnc(N2CCc3cc(S(=O)(=O)Nc4c(F)cc(Cl)cc4F)cc(N4CCCC4=O)c32)nc1` [TP-020n], the % of control [1] was 92%.
Work on `CCC(=O)N1CCN(c2ccc(-n3c(=O)ccc4cnc5ccc(-c6cnc7ccccc7c6)cc5c43)cc2C(F)(F)F)CC1` yielded a % of control [2] of 80%.
With `O[C@H]1CC[C@H](Nc2ncc3nc(Nc4c(F)cc(F)cc4F)n([C@H]4CCOC4)c3n2)CC1` the % of control [3] was 75% and the % of control [4] was 100%.
Compound `C=CC(=O)Nc1cccc(C(=O)Nc2ccc(Nc3cc(-c4[nH]c(SC)nc4C)ccn3)cc2)c1` has a % of control ([5]; at 1 µM) of 95% and a % of control ([5]; at 5 µM) of 94%.
